Source: BigSolDB 2.1

O=c1cc(CBr)c2ccccc2[nH]1
solubility (mole fraction)
Details | 273.15 K | 278.15 K | 283.15 K | 288.15 K | 293.15 K | 298.15 K | 303.15 K | 308.15 K | 313.15 K
in 1,4-dioxane | – | – | – | 0.000504 | 0.000625 | 0.000767 | 0.00092 | 0.00111 | 0.00137
in 2-butanone | 0.000321 | 0.000365 | 0.000408 | 0.000455 | 0.000511 | 0.00057 | 0.000634 | 0.00071 | 0.000792
in DMF | 0.00214 | 0.00272 | 0.00329 | 0.00399 | 0.00464 | 0.00542 | 0.00634 | 0.00729 | 0.00828
in DMSO | – | – | – | – | 0.0141 | 0.0185 | 0.0232 | 0.0284 | 0.0338
in NMP | 0.0044 | 0.00524 | 0.0062 | 0.00719 | 0.00827 | 0.00939 | 0.0108 | 0.0125 | 0.0143
in acetonitrile | 8e-05 | 9e-05 | 0.000104 | 0.000118 | 0.000134 | 0.00015 | 0.000171 | 0.000196 | 0.000223
in ethanol | 0.000173 | 0.000188 | 0.000206 | 0.000227 | 0.000247 | 0.000271 | 0.000301 | 0.000338 | 0.000385
in isopropanol | 0.000136 | 0.000154 | 0.000177 | 0.0002 | 0.000224 | 0.000248 | 0.000279 | 0.000316 | 0.00036
in methanol | 0.000113 | 0.000129 | 0.000146 | 0.000165 | 0.000186 | 0.000207 | 0.000234 | 0.000265 | 0.000303
in n-butanol | 0.00029 | 0.000311 | 0.000333 | 0.000361 | 0.000391 | 0.000425 | 0.000461 | 0.000508 | 0.000558
in n-propanol | 0.000224 | 0.00024 | 0.000262 | 0.000283 | 0.000309 | 0.000341 | 0.000379 | 0.000425 | 0.000476
in toluene | 1.5e-05 | 1.9e-05 | 2.3e-05 | 2.8e-05 | 3.2e-05 | 3.8e-05 | 4.3e-05 | 4.9e-05 | 5.6e-05
